Laboratory results from patent US12576107B2, “Methods of treating chronic inflammatory diseases” (METIMEDI PHARMACEUTICALS CO., LTD., priority 2018, dated 2026).

Experiments:
hypoxia-mediated factors = test: Brain CID in vitro experiment, Western blot in SK-N-SH cells; format: cell-based; settings: 2.5 mM; SK-N-SH cells (human neuroblastoma); normoxia and hypoxia
Description: (§1) Human Brain cell line, SK-N-SH, was purchased from American Type Culture Collection (Manassas, VA, USA). The SK-N-SH cells were maintained in RPMI1640 containing 10% fetal bovine serum (Life Technologies, Gaithersburg, MD, USA), 100 IU/ml penicillin, and 100 μg/ml streptomycin (Welgene, Daegu, South Korea).
(§2) To prepare whole cell lysate, cells were lysed with lysis buffer (1% NP-40, 0.25% sodium deoxycholate, 150 mM NaCl, 1 mM EDTA, 1% Triton X-100, 50 mM Tris-HCl (pH 7.4), 10% Glycerol) with protease inhibitor cocktail (Roche, Basel, Switzerland) and phosphatase inhibitors (NA3VO4 1 mM, NaF 100 mM). Then, protein concentration was measured using the Bicinchoninic acid (BCA) assay kit (Thermo Scientific, Waltham, MA). Whole cell or nuclear lysates were transferred onto polyvinylidene fluoride membranes (Merck Millipore, Billerica, MA, USA). After blocking in 5% non-fat milk (Bio-Rad, Hercules, CA, USA) for 1 h, the membranes were incubated overnight at 4° C. with primary antibody diluted in TBST containing 100 mM Tris-HCl (pH 7.5), 1.5 M NaCl, and 0.5% Tween-20 obtained from Sigma-Aldrich, to which 5% BSA and 0.1% sodium azide (Sigma-Aldrich) had been added. Specific primary antibodies to HIF-1α (1:1000), HIF-2α (1:1000), LDH-A (1:1000), LDH-B (1:1000), TLR-4 (1:1000), NF-κB (1:1000), VEGF (1:1000), α-tubulin (1:1000), Actin (1:1000), and GAPDH (1:5000). […]

lactate dehydrogenase A = test: Human endothelial cell in vitro experiment, Western blot in HUVEC; format: cell-based; settings: 2.5 mM, human umbilical vein endothelial cells
Description: Human Umbilical Vein Endothelial cell line, HUVEC, was purchased from American Type Culture Collection (Manassas, VA, USA). The HUVEC cells were Endothelial Cell Growth Medium 2 maintained in Endothelial Cell Growth Medium 2 Supplement MIX (PromoCell, Heidelberg, Germany)
as §2

[1] = tested on: hypoxia inducible factor-1α (HIF-1α); test: Immunocytochemistry of HIF-1α in ARPE-19 cells; format: cell-based, Human; settings: 2.5 mM
Description: as §1, with “retinal pigment epithelium” for “Brain”, “ARPE-19,” for “SK-N-SH,”, “ARPE-19” for “SK-N-SH”
ARPE-19 and SK-N-SH cells were fixed on bio-coated coverslips (BD bioscience, San Jose, CA, USA) by 4% PFA for 20 min and then incubated with the primary antibodies for 15 h. The primary antibodies were as follows: HIF-1a (1:300, BD Biosciences, San Jose, CA, USA); LDH-A (1:300, Santa Cruz Biotechnology, Santa Cruz, CA, USA); LDH-B (1:300, Santa Cruz Biotechnology, Santa Cruz, CA, USA); NF-κB (1:300, Santa Cruz Biotechnology, Santa Cruz, CA, USA); TLR-4 (1:300, Santa Cruz Biotechnology, Santa Cruz, CA, USA); apoE (1:200, Santa Cruz Biotechnology, Santa Cruz, CA, USA). After PBS wash, the cells were incubated with anti-mouse secondary biotinylated antibody (1:2000, Vector Laboratorie, Burlingame, CA, USA) and visualized with streptavidin conjugated to Fluorescein (Vector Laboratorie, Burlingame, CA, USA). […] Confocal fluorescence images were obtained with confocal laser scanning microscopy (LSCM, Nikon A1+, Tokyo, Japan) under a 60× oil immersion lens.

CC(O)C(=O)[O-].CC(O)C(=O)[O-].[Ca+2] (stereo not drawn) [calcium lactate]
decreased: hypoxia-mediated factors, Western blot (hypoxia-mediated factors) | hypoxia-mediated factors (lactate dehydrogenase A), Western blot (lactate dehydrogenase A) | hypoxia inducible factor-1α (HIF-1α), immunocytochemistry [1]
